# Test system: 439559-082-T-J2-PDC spheroid viability
# Assay: Anticancer human tumor 439559-082-T-J2-PDC patient-derived colon adenocarcinoma cell line growth inhibition [POLQ]
# Settings: spheroids with HUVEC and MSC; for IC50: curve of first compound; for viability, T/C: stronger effect = lower value
# Procedure: Multicellular complex tumor spheroid response to Polymerase (POL) inhibitors (novobiocin, ART-558, RP6685) in combination with a variety of drugs and investigational agents in selected tumor cell lines
# The POL inhibitors (novobiocin, ART-558, and RP6685) were evaluated both individually and in combination with standard of care and investigational anticancer small molecules within a complex spheroid model of solid tumors. . Complex spheroids include a stromal component modeled by human endothelial cells (HUVEC) and fibroblasts modeled by human mesenchymal stem cells (MSCs). The concentration ranges selected for each drug and investigational agent were based upon clinically achievable concentrations if the clinical Cmax of the agent was known.
# Compounds. The drugs and investigational agents: novobiocin (NSC847541), ART-558 (NSC835418), RP-6685 (NSC848927), peposertib (NSC802822), ceralasertib (NSC780249), elimusertib (NSC800525), camonsertib (NSC841442), AZD-1390 (NSC803789), olaparib (NSC753686), talazoparib (NSC767125), rucaparib (NSC756644), sotorasib (NSC818433), MRTX-1133 (NSC836407), SN-38 (NSC673596), topotecan (NSC609699), epotoside (NSC141540), doxorubicin (NSC123127), gemcitabine (NSC613327), 5-fluorouracil (NSC19893), paclitaxel (NSC125973), vemurafenib (NSC761431), MSA-2 (NSC828583), SN-011 (NSC837082), adavosertib (NSC754352), prexasertib (NSC758257), carboplatin (NSC241240) and oxaliplatin (NSC266046), were obtained from the National Cancer Institute (NCI) Developmental Therapeutics Program Chemical Repository (21). The FDA-approved anticancer drug set is available from the Developmental Therapeutics Program at https://dtp.cancer.gov/organization/dscb/obtaining/. […] The stock solutions were prepared in dimethyl sulfoxide (DMSO, Sigma-Aldrich, St. Louis, MO, cat. D2650), except for the platinum compounds which were prepared in saline (Quality Biological, Gaithersburg, MD, cat. 114-055-101), at 800-fold the tested concentration and stored at -70 degrees C prior to their use. All drugs and investigational agents were tested over a range starting from a high concentration at or near the clinical Cmax and decreasing in half-log increments. If the clinical Cmax for an agent had not been determined, the highest concentration tested was 10 microM, except for SN-38, which was tested at a high concentration of 1 microM.
# Cell Culture. All cells were maintained in an incubator at 37 degrees C and 5% CO2 with 95% humidity. The PDC lines were cultured according to standard operating procedures established by the NCI PDMR (https://pdmr.cancer.gov). Table 3 of the manuscript, lists the cell lines along with the number of the three cell types plated to form the mct-spheroids and media for tumor cell growth. After thawing, all PDC lines, except 997537-175-T-J1-PDC and 415267-285-R-J2-PDC, were cultured in Matrigel-coated flasks prepared with a working solution of 1X Ham's F-12 nutrient mix, without supplementation (Thermo Fisher Scientific, cat. 11765054), 100 U/mL penicillin-streptomycin (Thermo Fisher Scientific, cat. 15140122), and 2.5% Matrigel (Corning Inc., Corning, NY, cat. 354248) for the first three passages. The two PDC lines 997537-175-T-J1-PDC and 415267-285-R-J2-PDC were cultured on uncoated flasks. The 857933-349-R-J2-PDC line was cultured in 6C/Colon 1B media containing advanced DMEM/F-12 (Thermo Fisher Scientific, cat. 12634028), 10 mM HEPES (Thermo Fisher Scientific, cat. 15630080), 1X GlutaMAX supplement (Thermo Fisher Scientific, cat. 35050061), 0.1 mg/mL primocin (InvivoGen, San Diego, CA, cat. ant-pm-2), 10% defined fetal bovine serum, heat inactivated (HyClone Laboratories Inc., Logan, UT, cat. SH30070.03HI), 50% L-WRN conditioned media (ATCC, cat. CRL-3276), 1.25 mM N-Acetyl-L-cysteine (Sigma-Aldrich, cat. A9165), 10 mM nicotinamide (Sigma-Aldrich, cat. N0636), 1X B-27 supplement (Thermo Fisher Scientific, cat. 17504044), 1X N-2 supplement (Thermo Fisher Scientific, cat. […]
# [1] = second compound 0.0316 µM, first compound 0.0316 µM
# [2] = second compound 0.0316 µM, first compound 0.1 µM
# [3] = second compound 0.1 µM, first compound 0.0316 µM
# [4] = second compound 0.1 µM, first compound 0.1 µM
# [5] = second compound 0.316 µM, first compound 0.0316 µM
# [6] = second compound 0.316 µM, first compound 0.1 µM
# [7] = second compound 1 µM, first compound 0.0316 µM
# [8] = second compound 1 µM, first compound 0.1 µM
# [9] = second compound 3.16 µM, first compound 0.0316 µM
# [10] = second compound 3.16 µM, first compound 0.1 µM
# [11] = second compound 10 µM, first compound 0.0316 µM
# [12] = second compound 10 µM, first compound 0.1 µM
# 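Note: spheroids exposed to compounds for seven days before readout.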
# 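Throughout, for viability, T/C: 100% = DMSO vehicle control viability.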
structure (smiles),measurement,setting,value
CC[C@@]1(O)C(=O)OCc2c1cc1n(c2=O)Cc2cc3c(CN(C)C)c(O)ccc3nc2-1 + Nc1ccc(C#CCN(C(=O)Cc2ncc(C(F)(F)F)cc2C(F)(F)F)c2ccc(F)cc2)nn1,IC50,second compound 0.0316 µM,> 0.1 µM
same,IC50,second compound 0.1 µM,> 0.1 µM
same,IC50,second compound 0.316 µM,> 0.1 µM
same,IC50,second compound 1 µM,> 0.1 µM
same,IC50,second compound 3.16 µM,> 0.1 µM
same,IC50,second compound 10 µM,> 0.1 µM
same,"viability, T/C","second compound 0.0316 µM, first compound 0.000316 µM",104%
same,"viability, T/C","second compound 0.0316 µM, first compound 0.001 µM",97%
same,"viability, T/C","second compound 0.0316 µM, first compound 0.00316 µM",81.4%
same,"viability, T/C","second compound 0.0316 µM, first compound 0.01 µM",108%
same,"viability, T/C",[1],85.8%
same,"viability, T/C",[2],82.8%
same,"viability, T/C","second compound 0.1 µM, first compound 0.000316 µM",107%
same,"viability, T/C","second compound 0.1 µM, first compound 0.001 µM",103%
same,"viability, T/C","second compound 0.1 µM, first compound 0.00316 µM",96.3%
same,"viability, T/C","second compound 0.1 µM, first compound 0.01 µM",105%
same,"viability, T/C",[3],85.9%
same,"viability, T/C",[4],76.3%
same,"viability, T/C","second compound 0.316 µM, first compound 0.000316 µM",108%
same,"viability, T/C","second compound 0.316 µM, first compound 0.001 µM",110%
same,"viability, T/C","second compound 0.316 µM, first compound 0.00316 µM",101%
same,"viability, T/C","second compound 0.316 µM, first compound 0.01 µM",104%
same,"viability, T/C",[5],93.6%
same,"viability, T/C",[6],79%
same,"viability, T/C","second compound 1 µM, first compound 0.000316 µM",86.7%
same,"viability, T/C","second compound 1 µM, first compound 0.001 µM",98.6%
same,"viability, T/C","second compound 1 µM, first compound 0.00316 µM",83.8%
same,"viability, T/C","second compound 1 µM, first compound 0.01 µM",97.9%
same,"viability, T/C",[7],88.7%
same,"viability, T/C",[8],75.4%
same,"viability, T/C","second compound 3.16 µM, first compound 0.000316 µM",114%
same,"viability, T/C","second compound 3.16 µM, first compound 0.001 µM",113%
same,"viability, T/C","second compound 3.16 µM, first compound 0.00316 µM",92%
same,"viability, T/C","second compound 3.16 µM, first compound 0.01 µM",88.4%
same,"viability, T/C",[9],88%
same,"viability, T/C",[10],89.9%
same,"viability, T/C","second compound 10 µM, first compound 0.000316 µM",91.8%
same,"viability, T/C","second compound 10 µM, first compound 0.001 µM",94.8%
same,"viability, T/C","second compound 10 µM, first compound 0.00316 µM",87.9%
same,"viability, T/C","second compound 10 µM, first compound 0.01 µM",90.2%
same,"viability, T/C",[11],86%
same,"viability, T/C",[12],75.9%
COc1cc(C2c3cc4c(cc3C(OC3OC5COC(C)OC5C(O)C3O)C3COC(=O)C23)OCO4)cc(OC)c1O (centres undefined) + Nc1ccc(C#CCN(C(=O)Cc2ncc(C(F)(F)F)cc2C(F)(F)F)c2ccc(F)cc2)nn1,IC50,second compound 0.0316 µM,> 10 µM
same,IC50,second compound 0.1 µM,> 10 µM
same,IC50,second compound 0.316 µM,> 10 µM
same,IC50,second compound 1 µM,> 10 µM
same,IC50,second compound 3.16 µM,> 10 µM
same,IC50,second compound 10 µM,> 10 µM
same,"viability, T/C",[1],89.8%
same,"viability, T/C",[2],110%
same,"viability, T/C","second compound 0.0316 µM, first compound 0.316 µM",85.5%
same,"viability, T/C","second compound 0.0316 µM, first compound 1 µM",79.4%
same,"viability, T/C","second compound 0.0316 µM, first compound 3.16 µM",68%
same,"viability, T/C","second compound 0.0316 µM, first compound 10 µM",71.3%
same,"viability, T/C",[3],86.2%
same,"viability, T/C",[4],94.3%
same,"viability, T/C","second compound 0.1 µM, first compound 0.316 µM",84.2%
same,"viability, T/C","second compound 0.1 µM, first compound 1 µM",85.5%
same,"viability, T/C","second compound 0.1 µM, first compound 3.16 µM",86.8%
same,"viability, T/C","second compound 0.1 µM, first compound 10 µM",81.7%
same,"viability, T/C",[5],99.5%
same,"viability, T/C",[6],106%
same,"viability, T/C","second compound 0.316 µM, first compound 0.316 µM",93.2%
same,"viability, T/C","second compound 0.316 µM, first compound 1 µM",84.1%
same,"viability, T/C","second compound 0.316 µM, first compound 3.16 µM",80.6%
same,"viability, T/C","second compound 0.316 µM, first compound 10 µM",88%
same,"viability, T/C",[7],104%
same,"viability, T/C",[8],93.5%
same,"viability, T/C","second compound 1 µM, first compound 0.316 µM",92.6%
same,"viability, T/C","second compound 1 µM, first compound 1 µM",91.5%
same,"viability, T/C","second compound 1 µM, first compound 3.16 µM",88.7%
same,"viability, T/C","second compound 1 µM, first compound 10 µM",70.6%
same,"viability, T/C",[9],101%
same,"viability, T/C",[10],109%
same,"viability, T/C","second compound 3.16 µM, first compound 0.316 µM",78.9%
same,"viability, T/C","second compound 3.16 µM, first compound 1 µM",84.8%
same,"viability, T/C","second compound 3.16 µM, first compound 3.16 µM",76%
same,"viability, T/C","second compound 3.16 µM, first compound 10 µM",75.9%
same,"viability, T/C",[11],97.5%
same,"viability, T/C",[12],84.4%
same,"viability, T/C","second compound 10 µM, first compound 0.316 µM",77.6%
same,"viability, T/C","second compound 10 µM, first compound 1 µM",86.2%
same,"viability, T/C","second compound 10 µM, first compound 3.16 µM",80%
same,"viability, T/C","second compound 10 µM, first compound 10 µM",70%
